Data as given in patent publication US20240158446A1, “CYCLIC COMPOUND HAVING SELECTIVE INHIBITORY ACTION ON KRAS OVER HRAS AND NRAS” (CHUGAI SEIYAKU KABUSHIKI KAISHA, priority 2021, published 2024).
pKd: −log10 of the molar value.

Legend:
[1] = molecular target: GDP-bound KRAS wild-type protein (Homo sapiens, UniProt P01116); assay: Binding to KRAS by surface plasmon resonance (SPR), Single Cycle Kinetics; settings: SPR Single Cycle Kinetics, GDP-bound KRAS wild-type protein, 1:1 binding model; read-out: KRAS KD
[2] = molecular target: GDP-bound NRAS wild-type protein (Homo sapiens, UniProt P01111); assay: Binding to NRAS by surface plasmon resonance (SPR), Single Cycle Kinetics; settings: SPR KD ratio NRAS/KRAS, class symbols
[3] = molecular target: GDP-bound HRAS wild-type protein (Homo sapiens, UniProt P01112); assay: Binding to HRAS by surface plasmon resonance (SPR), Single Cycle Kinetics; settings: SPR KD ratio HRAS/KRAS, class symbols
Sequence of GDP-bound HRAS wild-type protein (P01112 whole entry): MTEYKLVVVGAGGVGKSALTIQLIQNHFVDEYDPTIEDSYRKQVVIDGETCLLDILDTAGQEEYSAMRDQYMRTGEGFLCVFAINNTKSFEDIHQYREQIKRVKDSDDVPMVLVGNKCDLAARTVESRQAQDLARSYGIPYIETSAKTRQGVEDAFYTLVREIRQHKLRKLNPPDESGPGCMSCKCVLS

Sequence of GDP-bound NRAS wild-type protein (P01111 whole entry): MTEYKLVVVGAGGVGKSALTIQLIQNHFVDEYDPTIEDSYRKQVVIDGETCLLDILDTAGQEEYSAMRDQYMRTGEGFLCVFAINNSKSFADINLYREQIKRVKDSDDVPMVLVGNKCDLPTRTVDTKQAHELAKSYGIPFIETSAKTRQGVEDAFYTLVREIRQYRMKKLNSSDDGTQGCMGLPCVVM
Sequence of GDP-bound KRAS wild-type protein (P01116 whole entry): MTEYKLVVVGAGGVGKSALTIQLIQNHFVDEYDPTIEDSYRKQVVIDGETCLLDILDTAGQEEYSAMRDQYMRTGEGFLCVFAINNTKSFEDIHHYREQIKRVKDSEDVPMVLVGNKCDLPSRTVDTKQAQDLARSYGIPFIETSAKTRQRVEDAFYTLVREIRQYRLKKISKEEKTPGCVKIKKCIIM

Row | SMILES | pKd [1] | NRAS/KRAS (ratio of KD value with respect to GDP-bound NRAS wild-type protein to KD value with respect to KRAS) [2] | HRAS/KRAS (ratio of KD value with respect to GDP-bound HRAS wild-type protein to KD value with respect to KRAS) [3]
1 | CCC[C@H]1C(=O)N[C@@H]([C@@H](C)CC)C(=O)N(C)CC(=O)N(C)[C@H]2C/C=C\CCN(C2=O)[C@@H](Cc2ccc(C(F)(F)F)cc2)C(=O)N(C)CC(=O)N[C@@H](CCc2ccc(Cl)c(OC)c2)C(=O)N2C[C@H](OCC)C[C@H]2C(=O)NC2(CC(C)(C)C2)C(=O)N(C)[C@@H](C2CCCC2)C(=O)N(C)[C@H](C(=O)N(C)C)CC(=O)N1C [PP2788] | 9.35 | A (a compound having 10 or more and less than 20 is denoted as A) | A (a compound having 10 or more and less than 20 is denoted as A)
2 | CCC[C@H]1C(=O)N[C@@H]([C@@H](C)CC)C(=O)N(C)CC(=O)N(C)[C@H]2C/C=C\CCN(C2=O)[C@@H](Cc2ccc(C(F)(F)F)cc2)C(=O)N(C)CC(=O)N[C@@H](CCc2ccc(Cl)c(OC)c2)C(=O)N2C[C@H](OCC)C[C@H]2C(=O)NC2(CC(C)(C)C2)C(=O)N(C)[C@@H](C(CC)CC)C(=O)N(C)[C@H](C(=O)N(C)C)CC(=O)N1C [PP2789] | 9.00 | AA (a compound having 20 or more is denoted as AA) | A (a compound having 10 or more and less than 20 is denoted as A)
3 | CCC[C@H]1C(=O)N[C@@H]([C@@H](C)CC)C(=O)N(C)CC(=O)N(C)[C@H]2C/C=C\CCN(C2=O)[C@@H](Cc2ccc(C)cc2)C(=O)N(C)CC(=O)N[C@@H](CCc2ccc(Cl)c(OC)c2)C(=O)N2C[C@H](OCC)C[C@H]2C(=O)NC2(CC(C)(C)C2)C(=O)N(C)[C@@H](C2CCCC2)C(=O)N(C)[C@H](C(=O)N(C)C)CC(=O)N1C [PP2790] | 9.27 | A (a compound having 10 or more and less than 20 is denoted as A) | A (a compound having 10 or more and less than 20 is denoted as A)
4 | CCCC[C@H]1C(=O)N[C@@H]([C@@H](C)CC)C(=O)N(C)CC(=O)N(C)[C@H]2C/C=C\CCN(C2=O)[C@@H](Cc2ccc(C)cc2)C(=O)N(C)CC(=O)N[C@@H](CCc2cc(F)c(C(F)(F)F)c(F)c2)C(=O)N2C[C@H](OCC)C[C@H]2C(=O)NC2(CCC2)C(=O)N(C)[C@@H](C2CCCC2)C(=O)N(C)[C@H](C(=O)N(C)CC)CC(=O)N1C [PP2796] | 9.92 | A (a compound having 10 or more and less than 20 is denoted as A) | A (a compound having 10 or more and less than 20 is denoted as A)
5 | CCCC[C@H]1C(=O)N[C@@H]([C@@H](C)CC)C(=O)N(C)CC(=O)N(C)[C@H]2C/C=C\CCN(C2=O)[C@@H](Cc2ccc(C)cc2)C(=O)N(C)CC(=O)N[C@@H](CCc2cc(F)c(C(F)(F)F)c(F)c2)C(=O)N2C[C@H](OCC)C[C@H]2C(=O)NC2(CCC2)C(=O)N(C)[C@@H](C2CCCC2)C(=O)N(C)[C@H](C(=O)N(C)C)CC(=O)N1C [PP2798] | 10.12 | A (a compound having 10 or more and less than 20 is denoted as A) | A (a compound having 10 or more and less than 20 is denoted as A)
6 | CCC[C@H]1C(=O)N[C@@H]([C@@H](C)CC)C(=O)N(C2CC2)CC(=O)N(C)[C@H]2C/C=C\CCN(C2=O)[C@@H](Cc2ccc(C)cc2)C(=O)N(C)CC(=O)N[C@@H](CCc2ccc(C(F)(F)F)c(OC)c2)C(=O)N2C[C@H](OCC)C[C@H]2C(=O)NC2(CC(C)(C)C2)C(=O)N(C)[C@@H](CC2CC2)C(=O)N(C)[C@H](C(=O)N(C)C)CC(=O)N1C [PP2803] | 8.23 | A (a compound having 10 or more and less than 20 is denoted as A) | A (a compound having 10 or more and less than 20 is denoted as A)
7 | CC[C@H](C)[C@@H]1NC(=O)[C@H](CC2CC2)N(C)C(=O)C[C@@H](C(=O)N(C)C)N(C)C(=O)[C@H](C2CCCC2)N(C)C(=O)C2(CC(C)(C)C2)NC(=O)[C@@H]2C[C@@H](F)CN2C(=O)[C@H](CCc2cc(F)c(C(F)(F)F)c(F)c2)NC(=O)CN(C)C(=O)[C@H](Cc2ccc(C)cc2)N2CC/C=C\C[C@@H](C2=O)N(C)C(=O)CN(C)C1=O [PP2804] | 10.48 | A (a compound having 10 or more and less than 20 is denoted as A) | A (a compound having 10 or more and less than 20 is denoted as A)
8 | CCCC[C@H]1C(=O)N[C@@H]([C@@H](C)CC)C(=O)N(C)CC(=O)N(C)[C@H]2C/C=C\CCN(C2=O)[C@@H](Cc2ccc(C(F)(F)F)cc2)C(=O)N(C)CC(=O)N[C@@H](CCc2cc(F)c(C(F)(F)F)c(F)c2)C(=O)N2C[C@H](OCC)C[C@H]2C(=O)NC2(CC(C)(C)C2)C(=O)N(C)[C@@H](C2CCCC2)C(=O)N(C)[C@H](C(=O)N(C)CC)CC(=O)N1C [PP2806] | 9.92 | A (a compound having 10 or more and less than 20 is denoted as A) | A (a compound having 10 or more and less than 20 is denoted as A)
9 | CCC[C@H]1C(=O)N[C@@H]([C@@H](C)CC)C(=O)N(C)CC(=O)N(C)[C@H]2C/C=C\CCN(C2=O)[C@@H](Cc2ccc(C(F)(F)F)cc2)C(=O)N(C)CC(=O)N[C@@H](CCc2cc(F)c(C(F)(F)F)c(F)c2)C(=O)N2C[C@H](OCC)C[C@H]2C(=O)NC2(CC(C)(C)C2)C(=O)N(C)[C@@H](CC2CC2)C(=O)N(C)[C@H](C(=O)N(C)C)CC(=O)N1C [PP2807] | 9.47 | AA (a compound having 20 or more is denoted as AA) | A (a compound having 10 or more and less than 20 is denoted as A)
10 | CCCC[C@H]1C(=O)N[C@@H]([C@@H](C)CC)C(=O)N(C)CC(=O)N(C)[C@H]2C/C=C\CCN(C2=O)[C@@H](Cc2ccc(C)cc2)C(=O)N(C)CC(=O)N[C@@H](CCc2cc(F)c(C(F)(F)F)c(F)c2)C(=O)N2C[C@H](OCC)C[C@H]2C(=O)NC2(CC(C)(C)C2)C(=O)N(C)[C@@H](C2CCCC2)C(=O)N(C)[C@H](C(=O)N(C)CC)CC(=O)N1C [PP2808] | 9.37 | B (a compound having 3 or more and less than 10 is denoted as B) | B (a compound having 3 or more and less than 10 is denoted as B)
11 | CCC[C@H]1C(=O)N[C@@H]([C@@H](C)CC)C(=O)N(C)CC(=O)N(C)[C@H]2C/C=C\CCN(C2=O)[C@@H](Cc2ccc(C(F)(F)F)cc2)C(=O)N(C)CC(=O)N[C@@H](CCc2ccc(C(F)(F)F)c(OC)c2)C(=O)N2C[C@H](OCC)C[C@H]2C(=O)NC2(CC(C)(C)C2)C(=O)N(C)[C@@H](CC2CC2)C(=O)N(C)[C@H](C(=O)N(C)C)CC(=O)N1C [PP2809] | 9.05 | A (a compound having 10 or more and less than 20 is denoted as A) | A (a compound having 10 or more and less than 20 is denoted as A)
12 | CCC[C@H]1C(=O)N[C@@H]([C@@H](C)CC)C(=O)N(C)CC(=O)N(C)[C@H]2C/C=C\CCN(C2=O)[C@@H](Cc2ccc(C(F)(F)F)cc2)C(=O)N(C)CC(=O)N[C@@H](CCc2ccc(Cl)c(Cl)c2)C(=O)N2C[C@H](OCC)C[C@H]2C(=O)NC2(CC(C)(C)C2)C(=O)N(C)[C@@H](CC2CC2)C(=O)N(C)[C@H](C(=O)N(C)C)CC(=O)N1C [PP2811] | 9.09 | A (a compound having 10 or more and less than 20 is denoted as A) | A (a compound having 10 or more and less than 20 is denoted as A)
13 | CCC[C@H]1C(=O)N[C@@H]([C@@H](C)CC)C(=O)N(C2CC2)CC(=O)N(C)[C@H]2C/C=C\CCN(C2=O)[C@@H](Cc2ccc(C(F)(F)F)cc2)C(=O)N(C)CC(=O)N[C@@H](CCc2cc(F)c(C(F)(F)F)c(F)c2)C(=O)N2C[C@H](OCC)C[C@H]2C(=O)NC2(CC(C)(C)C2)C(=O)N(C)[C@@H](CC2CC2)C(=O)N(C)[C@H](C(=O)N(C)C)CC(=O)N1C [PP2813] | 8.77 | AA (a compound having 20 or more is denoted as AA) | A (a compound having 10 or more and less than 20 is denoted as A)
14 | CCC[C@H]1C(=O)N[C@@H]([C@@H](C)CC)C(=O)N(C2CC2)CC(=O)N(C)[C@H]2C/C=C\CCN(C2=O)[C@@H](Cc2ccc(C(F)(F)F)cc2)C(=O)N(C)CC(=O)N[C@@H](CCc2ccc(C(F)(F)F)c(OC)c2)C(=O)N2C[C@H](OCC)C[C@H]2C(=O)NC2(CC(C)(C)C2)C(=O)N(C)[C@@H](CC2CC2)C(=O)N(C)[C@H](C(=O)N(C)C)CC(=O)N1C [PP2815] | 8.44 | A (a compound having 10 or more and less than 20 is denoted as A) | A (a compound having 10 or more and less than 20 is denoted as A)
15 | CCC[C@H]1C(=O)N[C@@H]([C@@H](C)CC)C(=O)N(C2CC2)CC(=O)N(C)[C@H]2C/C=C\CCN(C2=O)[C@@H](Cc2ccc(C(F)(F)F)cc2)C(=O)N(C)CC(=O)N[C@@H](CCc2ccc(Cl)c(Cl)c2)C(=O)N2C[C@H](OCC)C[C@H]2C(=O)NC2(CC(C)(C)C2)C(=O)N(C)[C@@H](CC2CC2)C(=O)N(C)[C@H](C(=O)N(C)C)CC(=O)N1C [PP2817] | 8.62 | A (a compound having 10 or more and less than 20 is denoted as A) | A (a compound having 10 or more and less than 20 is denoted as A)
